The values below come from article PMC6364417, “Kinase inhibitor library screening identifies synergistic drug combinations effective in sensitive and resistant melanoma cells” (Journal of Experimental & Clinical Cancer Research : CR, 2019).

Holding throughout (test): Kinase inhibitor library screening, PrestoBlue cell viability, 1 or 10 μM, 72 h
One data set has as its system 501Mel cells (parental). To be noted: 501Mel Parental. Summed up: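 Cells are treated with each inhibitor at 1 or 10 μM, incubated 72 h, then PrestoBlue reagent is added and the plate is read. Data are normalised to untreated cells.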
Data set [1] relates to 501Mel-GP cells (Dabrafenib-resistant). To be noted: 501Mel GP.
For data set [2], the system named is 501Mel-XP cells (Vemurafenib-resistant). To be noted: 501Mel XP.
A further data set deals with A375 cells (parental). The settings on record: A375 Parental.
The test system of data set [3] is A375-GP cells (Dabrafenib-resistant). To be noted: A375 GP.
In data set [4] the test system is A375-XP cells (Vemurafenib-resistant). To be noted: A375 XP.
The test system of a further data set is IGR37 cells (parental). The settings on record: IGR37 Parental.
Data set [5] concerns IGR37-GP cells (Dabrafenib-resistant). The settings on record: IGR37 GP.
The test system of data set [6] is IGR37-XP cells (Vemurafenib-resistant). To be noted: IGR37 XP.

Regarding `CCO.N#CC(=C(/N)Sc1ccccc1N)/C(C#N)=C(\N)Sc1ccccc1N` [U0126-EtOH], the “cell viability, 501Mel Parental, 1μΜ” value in the data set with 501Mel cells (parental) (1μΜ, 72 h, in %) is listed as 94.5. In the data set with 501Mel cells (parental) (10μΜ, 72 h, in %), the “cell viability, 501Mel Parental, 10μΜ” value was 65.9. In addition, the “cell viability, 501Mel GP, 1μΜ” value in data set [1] (1μΜ, 72 h, in %) was 105.2. Moreover, the “cell viability, 501Mel GP, 10μΜ” value in data set [1] (10μΜ, 72 h, in %) is 75.1. Also, the “cell viability, 501Mel XP, 1μΜ” value in data set [2] (1μΜ, 72 h, in %) worked out at 86.9. Also, the “cell viability, 501Mel XP, 10μΜ” value in [2] (10μΜ, 72 h, in %) is on record as 62.2. For the same compound, the “cell viability, A375 Parental, 1μΜ” value with A375 cells (parental) (1μΜ, 72 h, in %) is 100.1. Also, the “cell viability, A375 Parental, 10μΜ” value with A375 cells (parental) (10μΜ, 72 h, in %) is listed as 39.4. Also, the “cell viability, A375 GP, 1μΜ” value in [3] (1μΜ, 72 h, in %) came out at 93.9. Besides, the “cell viability, A375 GP, 10μΜ” value in [3] (10μΜ, 72 h, in %) is on record as 64.5. Further, the “cell viability, A375 XP, 1μΜ” value in data set [4] (1μΜ, 72 h, in %) stood at 94.5. Further, the “cell viability, A375 XP, 10μΜ” value in data set [4] (10μΜ, 72 h, in %) is given as 60.2. Further, the “cell viability, IGR37 Parental, 10μΜ” value in the data set with IGR37 cells (parental) (10μΜ, 72 h, in %) turned out to be 35.1. This compound also came in with a cell viability, IGR37 GP, 10μΜ in [5] (10μΜ, 72 h) of 83.5%. In addition, the “cell viability, IGR37 GP, 1μΜ” value in data set [5] (1μΜ, 72 h, in %) is 93.8. Also, the cell viability, IGR37 XP, 10μΜ in [6] (10μΜ, 72 h) was found to be 45.1%. Besides, in data set [6] (1μΜ, 72 h, in %), the “cell viability, IGR37 XP, 1μΜ” value worked out at 92.3.
Regarding `C[C@@H](Oc1cc(-c2cnn(C3CCNCC3)c2)cnc1N)c1c(Cl)ccc(F)c1Cl` [Crizotinib (PF-02341066)], the “cell viability (kinase inhibitor library screening)” value with 501Mel cells (parental) (1μΜ, 72 h) was 97.3%; with 501Mel cells (parental) (10μΜ, 72 h), 0.235%; in data set [1] (1μΜ, 72 h), 80.0%; in data set [1] (10μΜ, 72 h), -0.355%; in data set [2] (1μΜ, 72 h) it was 62.4%; in [2] (10μΜ, 72 h), -0.46%. Moreover, the “cell viability (kinase inhibitor library screening)” value with A375 cells (parental) (10μΜ, 72 h) is 20.5%; in the data set with A375 cells (parental) (1μΜ, 72 h), 98.4%; in data set [3] (1μΜ, 72 h), 94.9%; in [3] (10μΜ, 72 h) it was 14.4%; in [4] (1μΜ, 72 h), 99.3%; in [4] (10μΜ, 72 h) it was 17.2%. The “cell viability (kinase inhibitor library screening)” value in the data set on IGR37 cells (parental) (1μΜ, 72 h) was 93.8%; in the data set with IGR37 cells (parental) (10μΜ, 72 h), 8.1%; in [5] (1μΜ, 72 h), 97.3%; in [5] (10μΜ, 72 h), 6.1%; in data set [6] (1μΜ, 72 h), 100.4%; in [6] (10μΜ, 72 h) it was 1.5%.
As for `Cc1cc(C)c(/C=C2\C(=O)Nc3ccccc32)[nH]1` [Semaxanib (SU5416)], the “cell viability (kinase inhibitor library screening)” value with 501Mel cells (parental) (1μΜ, in %) stood at 100.0; with 501Mel cells (parental) (10μΜ, in %) it was 90.0; in data set [1] (1μΜ, in %) it was 104.6; in [1] (10μΜ, in %) it was 82.4; in data set [2] (1μΜ, in %), 89.0; in [2] (10μΜ, in %), 70.1. The “cell viability (kinase inhibitor library screening)” value turned out to be 104.2 in the data set with A375 cells (parental) (1μΜ, in %); 98.1 with A375 cells (parental) (10μΜ, in %); 106.4 in data set [3] (1μΜ, in %); 85.4 in data set [3] (10μΜ, in %); 97.5 in data set [4] (10μΜ, in %); 100.1 in the data set with IGR37 cells (parental) (1μΜ, in %). In addition, the “cell viability (kinase inhibitor library screening)” value in the data set with IGR37 cells (parental) (10μΜ, in %) is on record as 97.0; in data set [5] (1μΜ, in %), 92.4; in data set [5] (10μΜ, in %), 88.3; in data set [6] (1μΜ, in %), 100.1; in [6] (10μΜ, in %), 61.3.
Regarding `O=C1NC(=O)[C@@H](c2cn3c4c(cccc24)CCC3)[C@@H]1c1c[nH]c2ccccc12` [ARQ 197 (Tivantinib)], the “cell viability (kinase inhibitor library screening)” value with 501Mel cells (parental) (1μΜ, 72 h) is listed as 52.2%; with 501Mel cells (parental) (10μΜ, 72 h), 26.1%; in data set [1] (1μΜ, 72 h), 40.8%; in data set [1] (10μΜ, 72 h), 25.6%; in [2] (1μΜ, 72 h), 25.8%; in data set [2] (10μΜ, 72 h) it was 10.6%. The “cell viability (kinase inhibitor library screening)” value turned out to be 29.2% in the data set on A375 cells (parental) (10μΜ, 72 h); 26.4% in the data set on A375 cells (parental) (1μΜ, 72 h); 30.6% in [3] (1μΜ, 72 h); 32.9% in [3] (10μΜ, 72 h); 34.5% in data set [4] (1μΜ, 72 h); 24.5% in data set [4] (10μΜ, 72 h). In addition, the “cell viability (kinase inhibitor library screening)” value in the data set on IGR37 cells (parental) (1μΜ, 72 h) was 79.8%; with IGR37 cells (parental) (10μΜ, 72 h), 16.2%; in data set [5] (1μΜ, 72 h), 85.1%; in [5] (10μΜ, 72 h), 73.0%; in data set [6] (1μΜ, 72 h), 69.4%; in data set [6] (10μΜ, 72 h) it was 43.0%.
Regarding `CNC(=O)c1cc(COc2nnc(Nc3ccc(Cl)cc3)c3ccoc23)ccn1` [Telatinib (BAY 57-9352)], the “cell viability (kinase inhibitor library screening)” value in the data set with 501Mel cells (parental) (1μΜ, in %) was 96.8; in the data set on 501Mel cells (parental) (10μΜ, in %) it was 90.0; in data set [1] (1μΜ, in %), 99.0; in data set [1] (10μΜ, in %), 76.1; in [2] (10μΜ, in %), 68.9; with A375 cells (parental) (1μΜ, in %), 99.4. Further, the “cell viability (kinase inhibitor library screening)” value in the data set with A375 cells (parental) (10μΜ, in %) is recorded as 95.9; in data set [3] (1μΜ, in %), 98.3; in data set [3] (10μΜ, in %) it was 92.0; in [4] (1μΜ, in %), 96.6; in [4] (10μΜ, in %) it was 95.7; in the data set on IGR37 cells (parental) (1μΜ, in %), 99.2. Further, the “cell viability (kinase inhibitor library screening)” value in the data set with IGR37 cells (parental) (10μΜ, in %) amounted to 97.3; in data set [5] (1μΜ, in %), 94.5; in data set [5] (10μΜ, in %), 88.0; in [6] (1μΜ, in %), 98.1; in data set [6] (10μΜ, in %), 70.8.
As to `CN(C)Cc1cccc(N/C(=C2\C(=O)Nc3cc(C(=O)N(C)C)ccc32)c2ccccc2)c1` [BIX 02189], the “cell viability, 501Mel Parental, 1μΜ” value with 501Mel cells (parental) (1μΜ, 72 h, in %) is recorded as 89.4. Further, the “cell viability, 501Mel Parental, 10μΜ” value with 501Mel cells (parental) (10μΜ, 72 h, in %) came out at 89.0. Moreover, the “cell viability, 501Mel GP, 10μΜ” value in data set [1] (10μΜ, 72 h, in %) is listed as 90.2. The “cell viability, 501Mel XP, 1μΜ” value in data set [2] (1μΜ, 72 h, in %) worked out at 98.8. In [2] (10μΜ, 72 h, in %), the “cell viability, 501Mel XP, 10μΜ” value turned out to be 82.6. Further, the “cell viability, A375 Parental, 10μΜ” value in the data set with A375 cells (parental) (10μΜ, 72 h, in %) amounted to 86.5. The “cell viability, A375 GP, 1μΜ” value in data set [3] (1μΜ, 72 h, in %) was found to be 99.5. In [3] (10μΜ, 72 h, in %), the “cell viability, A375 GP, 10μΜ” value came to 79.8. Besides, the “cell viability, A375 XP, 1μΜ” value in [4] (1μΜ, 72 h, in %) came to 99.2. In addition, in [4] (10μΜ, 72 h, in %), the “cell viability, A375 XP, 10μΜ” value is 88.6. Besides, the “cell viability, IGR37 Parental, 1μΜ” value in the data set with IGR37 cells (parental) (1μΜ, 72 h, in %) is 100.1. For the same compound, in data set [5] (10μΜ, 72 h), the cell viability, IGR37 GP, 10μΜ stood at 85.5%. Moreover, the “cell viability, IGR37 GP, 1μΜ” value in data set [5] (1μΜ, 72 h, in %) was 92.6. This compound came in with a cell viability, IGR37 XP, 10μΜ in [6] (10μΜ, 72 h) of 54.9%. For the same compound, in data set [6] (1μΜ, 72 h, in %), the “cell viability, IGR37 XP, 1μΜ” value turned out to be 96.6.
On to `COc1cc(Nc2ncc(F)c(Nc3ccc4c(n3)NC(=O)C(C)(C)O4)n2)cc(OC)c1OC.O=S(=O)(O)c1ccccc1` [R406], for which the “cell viability (kinase inhibitor library screening)” value with 501Mel cells (parental) (1μΜ, in %) was 89.8; in the data set on 501Mel cells (parental) (10μΜ, in %), 71.4; in [1] (1μΜ, in %) it was 86.1; in [1] (10μΜ, in %) it was 50.0; in data set [2] (1μΜ, in %) it was 102.9; in data set [2] (10μΜ, in %), 48.7. The “cell viability (kinase inhibitor library screening)” value in the data set with A375 cells (parental) (1μΜ, in %) turned out to be 104.7; with A375 cells (parental) (10μΜ, in %), 58.1; in data set [3] (10μΜ, in %), 54.6; in data set [4] (1μΜ, in %), 99.5; in [4] (10μΜ, in %), 69.5; in the data set on IGR37 cells (parental) (1μΜ, in %), 103.3. The “cell viability (kinase inhibitor library screening)” value with IGR37 cells (parental) (10μΜ, in %) came out at 95.3; in data set [5] (1μΜ, in %) it was 90.2; in [5] (10μΜ, in %), 56.0; in [6] (1μΜ, in %), 89.4; in [6] (10μΜ, in %) it was 27.5.
